In series [1] the test system is Hs578T. Put plainly: Matrigel outgrowth assay/branching assay. In kind it is cell-based. Conditions: Homo sapiens, Hs-578T; HS578T cell line; Table Ib; read-out: Total branching inhibition in Matrigel HS578T. The procedure, abridged: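 Invasive outgrowth into a 3 mg/ml Matrigel gel is judged from images taken after 48, 72 and 96 h of exposure to 3.125, 1.56 or 0.78 μM compound, with DMSO as control. Positive means total inhibition of branching.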

The target of series [2] is T1, wild type AXL (wtAXL) receptor tyrosine kinase (Homo sapiens, UniProt P30530).
T1 construct: WtAXL cDNA was cloned into vector pLXSN(ESK) and transfected into Phoenix E packaging cells; expressed in transfected cells; host or cells: NIH3T3 N7 (mouse fibroblasts), retrovirally infected, clone 22
T1 sequence (P30530 26-894): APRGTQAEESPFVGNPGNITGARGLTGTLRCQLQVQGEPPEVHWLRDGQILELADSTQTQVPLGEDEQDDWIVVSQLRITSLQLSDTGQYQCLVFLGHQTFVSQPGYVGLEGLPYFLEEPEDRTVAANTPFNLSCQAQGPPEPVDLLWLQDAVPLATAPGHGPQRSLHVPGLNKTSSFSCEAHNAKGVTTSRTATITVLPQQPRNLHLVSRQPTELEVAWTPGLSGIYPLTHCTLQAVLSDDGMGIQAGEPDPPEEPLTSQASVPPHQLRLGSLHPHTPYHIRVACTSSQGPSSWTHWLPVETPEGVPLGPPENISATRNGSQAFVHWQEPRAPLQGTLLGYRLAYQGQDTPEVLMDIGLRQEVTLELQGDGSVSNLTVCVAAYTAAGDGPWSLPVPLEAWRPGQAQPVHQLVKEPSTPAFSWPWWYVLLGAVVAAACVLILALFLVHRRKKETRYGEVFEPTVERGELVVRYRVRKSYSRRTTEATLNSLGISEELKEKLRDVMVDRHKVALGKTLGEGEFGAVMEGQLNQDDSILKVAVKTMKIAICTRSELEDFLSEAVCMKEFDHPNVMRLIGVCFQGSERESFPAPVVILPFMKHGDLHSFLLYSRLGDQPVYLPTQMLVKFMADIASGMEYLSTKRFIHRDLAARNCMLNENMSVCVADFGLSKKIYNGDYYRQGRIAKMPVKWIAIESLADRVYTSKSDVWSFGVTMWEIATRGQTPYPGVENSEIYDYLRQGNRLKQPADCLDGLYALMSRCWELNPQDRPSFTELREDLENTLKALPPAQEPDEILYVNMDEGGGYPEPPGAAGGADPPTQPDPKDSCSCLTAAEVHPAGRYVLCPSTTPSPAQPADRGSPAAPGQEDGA
Put plainly: NIH-3T3-AXL cellular kinase assay (pY-AXL-ELISA). In kind it is cell-based. The following applies: NIH-3T3-AXL (clone 22) cells, serum depleted, compounds 1 h; Table Ia. In a few lines: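 Phospho-AXL was quantified by ELISA in lysates (4G10-biotin, streptavidin-AP, AttoPhos, 430/560 nm read at 90 min). The cells were monoclonal NIH3T3 lines stably transduced with human wtAXL, exposed to serial compound dilutions for 1 h before lysis.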
For orientation: ELISA stands for enzyme-linked immunosorbent assay.

The test system of series [3] is Hs578T. Put plainly: Cell vitality assay (ATP assay, CellTiter-Glo). In kind it is cell-based. Conditions: Homo sapiens, Hs-578T; HS578T cell line, 72 h; Table Ib; read-out: IC50 ATP-Assay HS578T after 72 h. In a few lines:
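ATP-based luminescence (CellTiter-Glo) after 72 h exposure of 1000 cells/well to seven compound concentrations from 0.195 to 12.5 μM. IC50 defined as concentration reducing ATP to 50% of DMSO control.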
(ATP-based viability assays read luminescence as a measure of living cells.)

For series [4], the system named is Hs578T. Kind of series: Wound healing migration assay. In kind it is cell-based. The following applies: Homo sapiens, Hs-578T; HS578T cell line; Table Ib. In a few lines: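 Compound exposure at 12.5, 6.25 and 3.125 μM, with DMSO control, on scratch-wounded monolayers (150000 cells/24 well, overnight). Wound closure imaged by microscopy, fixed with crystal violet after 48 h or 72 h depending on cell line; IC50 is the concentration giving 50% wound size between t0 and t48/t72.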

Melting point and IC50 data for 14 compounds are collected here from patent US9169241B2, “Quinolinyloxyphenylsulfonamides” (Max-Planck-Gesellschaft Zur Forderung der Wissenschaften …, priority 2009, dated 2015).

For the compound `COc1cc2c(Oc3ccc(NS(=O)(=O)c4csc5ccccc45)cc3F)ccnc2cc1OCCCN1CCCCC1C` (stereo not shown) [Example 147, Benzo[b]thiophene-3-sulfonic acid (3-fluoro-4-{6-methoxy-7-[3-(2-methyl-piperidin-1-yl)-propoxy]-quinolin-4-yloxy}-phenyl)-amide], the melting point – broadly, the temperature, or range, at which the solid turns liquid – fell in the range of 120 to 122 °C. Also, in the series with Hs578T [1], the IC50 is not above 10 µM. Further, the IC50 in series [2] fell in the range of 0.5 to 3 µM. In the series on Hs578T [3], the IC50 is not above 12.5 µM. The compound also showed an IC50 in the series on Hs578T [4] not above 12.5 µM.
As to `COc1cc2c(Oc3ccc(NS(=O)(=O)c4ccco4)cc3F)ccnc2cc1OCCCN1CCCCC1C` (stereo not shown) [Example 148, Furan-2-sulfonic acid (3-fluoro-4-{6-methoxy-7-[3-(2-methyl-piperidin-1-yl)-propoxy]-quinolin-4-yloxy}-phenyl)-amide], the melting point was in the range of 118 to 119 °C. For the same compound, the IC50 in the series on Hs578T [1] is 10 to 25 µM. This compound also came in with an IC50 in series [2] of 0.5 to 3 µM. Moreover, the IC50 in the series with Hs578T [3] is not above 12.5 µM. This compound returned an IC50 with Hs578T [4] of 12.5 to 50 µM.
As to `COc1cc2c(Oc3ccc(NS(=O)(=O)c4c(F)cccc4F)cc3F)ccnc2cc1OCCCN1CCCCC1C` (stereo not shown) [Example 152, 2,6-Difluoro-N-(3-fluoro-4-{6-methoxy-7-[3-(2-methyl-piperidin-1-yl)-propoxy]-quinolin-4-yloxy}-phenyl)-benzenesulfonamide], the melting point is 132 to 134 °C. Also, in the series on Hs578T [1], the IC50 is not above 10 µM. Further, the IC50 in series [2] is less than 0.5 µM. In addition, the IC50 in the series with Hs578T [3] was not above 12.5 µM. The compound further displayed an IC50 in the series on Hs578T [4] not above 12.5 µM.
With `COc1cc2c(Oc3ccc(NS(=O)(=O)c4ccccc4OC(F)(F)F)cc3F)ccnc2cc1OCCCN1CCCCC1C` (stereo not shown) [Example 153, N-(3-Fluoro-4-{6-methoxy-7-[3-(2-methyl-piperidin-1-yl)-propoxy]-quinolin-4-yloxy}-phenyl)-2-trifluoromethoxy-benzenesulfonamide], the melting point is 90 to 92 °C. In addition, the IC50 in the series with Hs578T [1] was 10 to 25 µM. The compound further gave an IC50 in series [2] of less than 0.5 µM. For the same compound, in the series with Hs578T [3], the IC50 was not above 12.5 µM. This compound yielded an IC50 in the series with Hs578T [4] not above 12.5 µM.
With `COc1cc2c(Oc3ccc(NS(=O)(=O)c4cc(Cl)ccc4Cl)cc3F)ccnc2cc1OCCCN1CCCCC1C` (stereo not shown) [Example 154, 2,5-Dichloro-N-(3-fluoro-4-{6-methoxy-7-[3-(2-methyl-piperidin-1-yl)-propoxy]-quinolin-4-yloxy}-phenyl)-benzenesulfonamide], the melting point is 128 to 130 °C. In addition, the IC50 in the series with Hs578T [1] fell in the range of 10 to 25 µM. Further, the IC50 in series [2] was less than 0.5 µM. Moreover, the IC50 with Hs578T [3] is not above 12.5 µM. Moreover, in the series with Hs578T [4], the IC50 is not above 12.5 µM.
`COc1cc2c(Oc3ccc(NS(=O)(=O)c4cc(F)ccc4F)cc3C)ccnc2cc1OCCCN1CCC(C)CC1` [Example 171, 2,5-Difluoro-N-(4-{6-methoxy-7-[3-(4-methyl-piperidin-1-yl)-propoxy]-quinolin-4-yloxy}-3-methyl-phenyl)-benzenesulfonamide] returned a melting point of 222 to 223 °C. Besides, the IC50 in the series with Hs578T [1] lay in the range of 10 to 25 µM. This compound also had an IC50 in series [2] of 0.5 to 3 µM. Besides, the IC50 in the series on Hs578T [3] was 12.5 to 50 µM. Moreover, the IC50 in the series with Hs578T [4] was 12.5 to 50 µM.
As for `COc1cc2c(Oc3ccc(NS(=O)(=O)c4c(F)cccc4F)cc3C)ccnc2cc1OCCCN1CCC(C)CC1` [Example 172, 2,6-Difluoro-N-(4-{6-methoxy-7-[3-(4-methyl-piperidin-1-yl)-propoxy]-quinolin-4-yloxy}-3-methyl-phenyl)-benzenesulfonamide], the melting point was 191 to 193 °C. Also, in the series with Hs578T [1], the IC50 was not above 10 µM. Besides, in series [2], the IC50 lay in the range of 0.5 to 3 µM. Further, in the series on Hs578T [3], the IC50 is not above 12.5 µM. Moreover, the IC50 in the series with Hs578T [4] is not above 12.5 µM.
`COc1cc2c(Oc3ccc(NS(=O)(=O)c4c(F)cccc4F)cc3OC)ccnc2cc1OCCCN1CCC(C)CC1` [Example 173, 2,6-Difluoro-N-(3-methoxy-4-{6-methoxy-7-[3-(4-methyl-piperidin-1-yl)-propoxy]-quinolin-4-yloxy}-phenyl)-benzenesulfonamide] came in with a melting point of 98 to 101 °C. Also, the IC50 with Hs578T [1] was in the range of 10 to 25 µM. The IC50 in series [2] was in the range of 0.5 to 3 µM. Further, the IC50 with Hs578T [3] is not above 12.5 µM. The IC50 in the series on Hs578T [4] lay within 12.5 to 50 µM.
The matching figures for `COc1cc2c(Oc3ccc(NS(=O)(=O)c4ccccc4OC(F)(F)F)cc3C)ccnc2cc1OCCCN1CCC(C)CC1` [Example 174, N-(4-{6-Methoxy-7-[3-(4-methyl-piperidin-1-yl)-propoxy]-quinolin-4-yloxy}-3-methyl-phenyl)-2-trifluoromethoxy-benzenesulfonamide]: 168 to 169 °C, not above 10 µM, 0.5 to 3 µM, not above 12.5 µM and not above 12.5 µM.
The matching figures for `COc1cc2c(Oc3ccc(NS(=O)(=O)c4cc(Cl)ccc4Cl)cc3C)ccnc2cc1OCCCN1CCC(C)CC1` [Example 175, 2,5-Dichloro-N-(4-{6-methoxy-7-[3-(4-methyl-piperidin-1-yl)-propoxy]-quinolin-4-yloxy}-3-methyl-phenyl)-benzenesulfonamide]: 187 to 188 °C, not above 10 µM, 0.5 to 3 µM, not above 12.5 µM and not above 12.5 µM.
Compound `COc1cc2c(Oc3ccc(NS(=O)(=O)c4c(Cl)cccc4Cl)cc3C)ccnc2cc1OCCCN1CCC(C)CC1` [Example 176, 2,6-Dichloro-N-(4-{6-methoxy-7-[3-(4-methyl-piperidin-1-yl)-propoxy]-quinolin-4-yloxy}-3-methyl-phenyl)-benzenesulfonamide] gave a melting point of 209 to 210 °C. In addition, the IC50 in the series with Hs578T [1] was not above 10 µM. This compound also came in with an IC50 in series [2] of 0.5 to 3 µM. Moreover, in the series on Hs578T [3], the IC50 was not above 12.5 µM. Also, the IC50 with Hs578T [4] was not above 12.5 µM.
On to `COc1cc2c(Oc3ccc(NS(=O)(=O)c4cc(Cl)ccc4Cl)cc3F)ccnc2cc1OCCCN(C)C` [Example 180, 2,5-Dichloro-N-{4-[7-(3-dimethylamino-propoxy)-6-methoxy-quinolin-4-yloxy]-3-fluoro-phenyl}-benzenesulfonamide], for which the melting point fell in the range of 150 to 152 °C. The IC50 with Hs578T [1] is not above 10 µM. For the same compound, in series [2], the IC50 was less than 0.5 µM. Besides, the IC50 in the series on Hs578T [3] is not above 12.5 µM. In the series on Hs578T [4], the IC50 is not above 12.5 µM.
Take `COc1cc2c(Oc3ccc(NS(=O)(=O)c4ccc(Cl)s4)cc3F)ccnc2cc1OCCCN(C)C` [Example 182, 5-Chloro-thiophene-2-sulfonic acid {4-[7-(3-dimethylamino-propoxy)-6-methoxy-quinolin-4-yloxy]-3-fluoro-phenyl}-amide]: the melting point fell in the range of 130 to 132 °C. In addition, the IC50 in the series with Hs578T [1] was 10 to 25 µM. In series [2], this compound had an IC50 of less than 0.5 µM. Besides, in the series on Hs578T [3], the IC50 is not above 12.5 µM. In addition, the IC50 in the series with Hs578T [4] was not above 12.5 µM.
The compound `COc1cc2c(Oc3ccc(NS(=O)(=O)c4ccco4)cc3F)ccnc2cc1OCCCN(C)C` [Example 185, Furan-2-sulfonic acid {4-[7-(3-dimethylamino-propoxy)-6-methoxy-quinolin-4-yloxy]-3-fluoro-phenyl}-amide] displayed a melting point of 185 to 187 °C. Also, in the series on Hs578T [1], the IC50 was in the range of 10 to 25 µM. Moreover, the IC50 in series [2] was 0.5 to 3 µM. Moreover, the IC50 with Hs578T [3] was not above 12.5 µM. In addition, the IC50 in the series on Hs578T [4] lay within 12.5 to 50 µM.
